{
  "source": "patent US6984496B2",
  "about": "“Vitro assay for testing gabapentinoid activity” (Warner-Lambert Company, priority 2001, dated 2006)",
  "key": {"[1]": {"system": "NK1 mediated Elk-1 transcription", "assay": "NK1 mediated Elk-1 luciferase reporter assay in CHO-NK-1 cells stimulated with substance P", "details": "substance P 20 nM, 4 hours", "method": "CHO-NK-1 cells were seeded to plates and grown to confluency overnight. Lipofectamine transfection was performed on the confluent cells to insert Elk-1 and luciferase vectors necessary for a MAP kinase dependent reporter system. Prior to transfection, the cells were washed in OPTI media (Gibco). To each confluent well in a 24-well plate, 20 ng of Elk-1 and 200 ng of luciferase DNA vectors were added. In addition to the vectors, 1.5 μL of Lipofectamine Reagent (Gibco) and OPTI media (Gibco) were also added for a total transfection volume of 200 μL (a master mix was made prior to use). After a 3-hour incubation, the media was changed to F-12 growing media (500 μL/well) for an additional 3-hour incubation. After the second incubation, the media was changed again to DMEM (500 μL/well) for serum starvation and incubated overnight (all incubations at 37° C.).\nIn addition, lipofectamine transfection was performed on CHO-NK-1 confluent cells to insert a GAL4-Elk-1 fusion protein and luciferase vector using the methods described above.\nThe DMEM media was decanted off the plate, and the cells were washed with 500 μL of Kreb buffer. After the wash, 460 μL of Kreb buffer containing 2 mM sodium pyruvate was added to each well and incubated for 30 minutes at 37° C. Next, 20 μL of compound was added to each well at the desired concentration and incubated for another 30 minutes. […] Finally, the cells were stimulated with Substance-P (final concentration=20 nM), and the cells were incubated for 4 hours at 37° C. After the 4-hour incubation, the buffer was decanted off the plate, and the plate was washed twice with Dulbecco's-PBS. Cells were lysed with 100 μL per well of cell Lysis Buffer (Promega), and the plate was vortexed for 10 minutes. Finally, 10 μL of the cell lysate was transferred to a 96-well reader plate, and each well's luminescence was measured using a luminometer (the Promega Luciferase Reporter system was used)."}, "[2]": {"system": "PMA mediated Erk-2 phosphorylation", "assay": "PMA mediated Erk-2 phosphorylation in differentiated IMR-32 cells, Western blot", "assay_type": "cell-based, human", "details": "30 minutes preincubation, PMA stimulation", "description": "[…]. Differentiated IMR-32 cells were pretreated with indicated concentrations of gabapentin for 30 minutes and then stimulated with PMA for 10 minutes. Products from treated cells were analyzed by Western blotting with anti-pErk antibody.\nIMR-32 cells were grown in MEM media (Gibco BRL, 11095-080), supplemented with 10% fetal bovine serum (Gibco BRL, 26140-087), 1% antibiotic-antimycotic (Gibco BRL, 15240-096), and 1% L-glutamine (Gibco BRL, 25030-032). Cells, grown to confluency, were differentiated for a period of 7 to 10 days, or longer, by adding 1 mM dibutyryl cAMP (Sigma D-0627) and 2.5 μM 5-bromo-2-deoxyuridine (Sigma B-9285) to the media. The differentiation media was fed continuously to cells until the cells were used in an experiment. Cells were divided into groups and preincubated for 30 minutes either in the presence or absence of indicated concentration of gabapentin then subsequently challenged with 50 nM PMA for […]. […]. Proteins in cell extracts were separated by SDS-PAGE and transferred to nitrocellulose membrane. The nitrocellulose membrane was blocked overnight at 4° C. with 4% BSA in Tris-buffered saline containing 0.2% (v/v) Tween 20 (TBST). The membrane was then incubated for 1 hour at RT with antiphospho MAP kinase antibody (1:1000 dilution) in 1% BSA and TBST, then washed with TBST followed by incubation with antirabbit IgG HRP antibody. […]"}, "[3]": {"system": "rat mGluR5 mediated Erk-2 phosphorylation", "assay": "mGluR5 mediated Erk phosphorylation in CHO-mGluR5 cells, Western blot with anti-pErk antibody", "assay_type": "cell-based", "description": ". Products from treated cells were analyzed by Western blotting with anti-pErk antibody.\nCHO cells engineered to express mGluR5 (CHO-mGluR5 cells) were plated in 12-well tissue culture plates at a density of 20,000 cells/well and grown for 24 hours, followed by further culturing in serum free medium for 16 hours. CHO-mGluR5 cells were incubated in Krebs buffer for 30 minutes at which time 1 mM sodium pyruvate and 10 μ/mL glutamic-pyruric transaminase was added. […] . […] Proteins in cell extracts were separated by SDS-PAGE and transferred to nitrocellulose membrane. The membrane was blocked overnight at 4° C. with 4% BSA in Tris-buffered saline containing 0.2% (v/v) Tween 20 (TBST). The membrane was then incubated for 1 hour at room temperature (RT) with antiphospho MAP kinase antibody (1:1000 dilution) in 1% BSA and TBST, then washed with TBST followed by incubation with antirabbit IgG HRP antibody. After a final wash with TBST, the membrane was visualized using enhanced chemiluminescence reagents.\nActivation of Erk-1 and -2 by stimulating CHO-mGluR5 cells with 100 μM quisqualate was examined by using an antibody specific to phosphorylated Erk-1 and -2. As shown in FIG. 1 (Lane 1), there was little phosphorylated Erk-1 and -2 in unstimulated CHO cells. […] ."}, "[4]": {"system": "PMA mediated Elk-1 transcription in CHO cells", "assay": "PMA mediated Elk-1 reporter assay in CHO cells", "method": "(§2) PKC competent cells are stimulated with PMA, preferably in the range of 50 nM, to activate Erk-2. Activated Erk-2, as discussed above, activates Elk-1 which induces reporter gene expression. […] As above, cells may be incubated with the target compound before treatment with PMA."}, "[5]": {"system": "PMA mediated Elk-1 transcription in IMR-32 cells", "assay": "PMA mediated Elk-1 reporter assay in IMR-32 cells", "details": "50 nM PMA", "method": "as §2"}, "P38": {"system": "P38", "assay": "P38 activation in CHO-NK-1 cells, Western blot with activation-specific antibodies", "assay_type": "cell-based, Chinese Hamster", "details": "10 nM substance-P, data not shown", "source_text": "(§1) Since P38 and Jun kinases are closely related to MAP kinase, the effects of substance-P on these kinases was examined."}, "Jun kinase": {"system": "Jun kinase", "assay": "Jun kinase activation in CHO-NK-1 cells, Western blot with activation-specific antibodies", "assay_type": "cell-based, Chinese Hamster", "details": "10 nM substance-P, data not shown", "source_text": "as §1"}, "MAP kinase": {"system": "MAP kinase", "assay": "MAP kinase activation in CHO-NK-1 cells, Western blot with activation-specific antibodies", "assay_type": "cell-based, Chinese Hamster", "details": "10 nM substance-P, data not shown"}},
  "note": "Ends that are not written are not given here.",
  "data": [
    {"compound": "NCC1(CC(=O)O)CCCCC1", "note": "[gabapentin, 1-(aminomethyl) cyclohexaneacetic acid]", "values": [
      {"measurement": "inhibition of Elk-1 mediated luciferase activity elicited by substance P", "setting": "[1]", "value": "dose dependent inhibition"},
      {"measurement": "effect on PMA increased Erk-2 phosphorylation", "setting": "[2]", "value": "dose-dependently blocked"},
      {"measurement": "reduction of quisqualate activated phosphorylated Erk-2", "setting": "[3]; 100 μM compound preincubated 30 minutes, 100 μM quisqualate 5 minutes, CHO-mGluR5 cells", "value": 50, "unit": "%"},
      {"measurement": "phosphorylated Erk-1 and -2 in the absence of quisqualate", "setting": "[3]; gabapentin treated CHO-mGluR5 cells, no quisqualate (Lane 3)", "value": "little or no phosphorylated Erk-1 and -2"},
      {"measurement": "effect on PMA activated reporter gene activity", "setting": "[4]", "value": "in a dose-dependent manner, reduced"},
      {"measurement": "effect on PMA-induced Elk-1 reporter gene expression", "setting": "[5]", "value": "dose-dependently decreased"}
    ]},
    {"compound": "O=C(NOCC1CC1)c1ccc(F)c(F)c1Nc1ccc(I)cc1Cl", "note": "[PD 184352]", "values": [
      {"measurement": "inhibition of Elk-1 mediated luciferase activity elicited by substance P", "setting": "[1]", "value": "completely inhibited"},
      {"measurement": "effect on quisqualate activated Erk phosphorylation (positive control)", "setting": "[3]; CHO-mGluR5 cells, data not shown", "value": "block the effect of quisquolate"}
    ]},
    {"compound": "CC(C)C[C@H](CN)CC(=O)O", "note": "[pregabalin]", "values": [
      {"measurement": "inhibition of Elk-1 mediated luciferase activity elicited by substance P", "setting": "[1]", "value": "dose dependent inhibition"}
    ]},
    {"compound": "substance-P: a tackykinin neuropeptide that acts through the NK1, NK2, and NK3 receptors (RPKPQQFFGLM-NH2; ends and bridges not checked; UniProt P20366 58-68, looked up)", "values": [
      {"measurement": "activation of P38", "setting": "P38", "value": "no effect"},
      {"measurement": "activation of Jun kinase", "setting": "Jun kinase", "value": "no effect"},
      {"measurement": "activation of MAP kinase", "setting": "MAP kinase", "value": "significantly activated"}
    ]}
  ]
}
